{"source": "the kinase profiling compilation of Christmann-Franck et al. (2016)", "assay_in_all_cases": "Caliper, Mobility shift assay off-chip", "key": {"[1]": {"target": "MYLK3 (human) (UniProt Q32MK0)"}, "[2]": {"test_system": "FGFR1 (human), P11362 [V561M]"}, "[3]": {"test_system": "ABL1 (human), P00519 [M351T]"}, "[4]": {"test_system": "TEK (human), Q02763 [Y897S]", "sequence (Q02763 whole entry Y897S, looked up)": "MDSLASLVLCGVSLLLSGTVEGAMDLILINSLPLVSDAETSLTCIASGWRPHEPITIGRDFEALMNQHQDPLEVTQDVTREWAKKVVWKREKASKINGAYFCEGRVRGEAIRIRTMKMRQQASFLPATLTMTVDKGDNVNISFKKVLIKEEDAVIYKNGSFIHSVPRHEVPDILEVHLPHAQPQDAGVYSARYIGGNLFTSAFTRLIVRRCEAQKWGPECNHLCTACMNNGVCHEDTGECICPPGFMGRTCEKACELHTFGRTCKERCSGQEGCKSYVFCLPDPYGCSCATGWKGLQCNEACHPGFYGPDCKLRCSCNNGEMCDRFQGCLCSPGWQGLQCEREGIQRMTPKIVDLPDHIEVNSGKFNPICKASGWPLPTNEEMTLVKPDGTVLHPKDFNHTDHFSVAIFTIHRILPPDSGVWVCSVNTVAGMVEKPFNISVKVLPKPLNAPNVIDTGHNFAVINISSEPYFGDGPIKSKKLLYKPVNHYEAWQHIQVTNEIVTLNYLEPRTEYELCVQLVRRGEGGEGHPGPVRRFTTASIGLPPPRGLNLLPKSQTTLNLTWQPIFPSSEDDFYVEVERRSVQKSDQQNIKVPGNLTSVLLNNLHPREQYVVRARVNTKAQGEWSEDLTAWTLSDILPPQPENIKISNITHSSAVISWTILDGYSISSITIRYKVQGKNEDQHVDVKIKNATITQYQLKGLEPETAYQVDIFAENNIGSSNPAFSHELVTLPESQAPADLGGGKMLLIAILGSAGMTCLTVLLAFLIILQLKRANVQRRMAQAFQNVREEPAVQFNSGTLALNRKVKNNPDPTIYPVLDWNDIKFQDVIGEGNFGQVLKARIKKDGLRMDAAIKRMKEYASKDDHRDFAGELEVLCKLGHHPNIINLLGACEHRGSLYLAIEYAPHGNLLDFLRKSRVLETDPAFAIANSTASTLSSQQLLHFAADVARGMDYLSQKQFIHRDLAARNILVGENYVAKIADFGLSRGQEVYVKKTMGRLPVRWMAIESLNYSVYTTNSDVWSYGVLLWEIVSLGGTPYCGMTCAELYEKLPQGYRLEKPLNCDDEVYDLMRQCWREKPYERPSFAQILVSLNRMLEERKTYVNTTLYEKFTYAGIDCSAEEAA"}, "[5]": {"target": "FGFR4 (human) (UniProt P22455)", "sequence (P22455 whole entry, looked up)": "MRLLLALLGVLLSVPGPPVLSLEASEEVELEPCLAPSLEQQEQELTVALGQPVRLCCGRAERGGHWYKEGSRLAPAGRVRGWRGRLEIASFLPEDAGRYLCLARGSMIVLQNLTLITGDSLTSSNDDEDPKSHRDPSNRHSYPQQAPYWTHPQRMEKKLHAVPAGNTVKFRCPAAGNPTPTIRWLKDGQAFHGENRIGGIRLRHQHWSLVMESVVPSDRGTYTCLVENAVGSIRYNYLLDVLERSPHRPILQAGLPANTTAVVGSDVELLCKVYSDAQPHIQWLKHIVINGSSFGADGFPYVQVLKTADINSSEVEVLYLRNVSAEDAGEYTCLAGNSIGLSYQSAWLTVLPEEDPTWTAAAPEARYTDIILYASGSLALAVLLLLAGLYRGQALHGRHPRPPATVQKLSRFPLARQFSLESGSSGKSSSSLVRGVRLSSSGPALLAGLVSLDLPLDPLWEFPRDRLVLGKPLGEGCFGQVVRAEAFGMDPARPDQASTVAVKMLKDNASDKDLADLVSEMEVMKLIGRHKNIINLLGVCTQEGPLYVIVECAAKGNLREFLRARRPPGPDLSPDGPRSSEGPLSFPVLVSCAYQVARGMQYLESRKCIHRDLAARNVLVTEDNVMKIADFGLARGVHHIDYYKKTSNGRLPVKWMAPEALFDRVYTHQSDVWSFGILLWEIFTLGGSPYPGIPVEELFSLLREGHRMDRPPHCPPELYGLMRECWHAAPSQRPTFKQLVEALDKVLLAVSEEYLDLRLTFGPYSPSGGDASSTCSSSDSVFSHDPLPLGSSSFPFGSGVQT"}, "[6]": {"target": "VRK2 (human) (UniProt Q86Y07)"}, "[7]": {"target": "PRKCB2 (human) (UniProt P05771)"}, "[8]": {"target": "SGK2 (human) (UniProt Q9HBY8)"}, "[9]": {"target": "PRKG2 (human) (UniProt Q13237)", "sequence (Q13237 whole entry, looked up)": "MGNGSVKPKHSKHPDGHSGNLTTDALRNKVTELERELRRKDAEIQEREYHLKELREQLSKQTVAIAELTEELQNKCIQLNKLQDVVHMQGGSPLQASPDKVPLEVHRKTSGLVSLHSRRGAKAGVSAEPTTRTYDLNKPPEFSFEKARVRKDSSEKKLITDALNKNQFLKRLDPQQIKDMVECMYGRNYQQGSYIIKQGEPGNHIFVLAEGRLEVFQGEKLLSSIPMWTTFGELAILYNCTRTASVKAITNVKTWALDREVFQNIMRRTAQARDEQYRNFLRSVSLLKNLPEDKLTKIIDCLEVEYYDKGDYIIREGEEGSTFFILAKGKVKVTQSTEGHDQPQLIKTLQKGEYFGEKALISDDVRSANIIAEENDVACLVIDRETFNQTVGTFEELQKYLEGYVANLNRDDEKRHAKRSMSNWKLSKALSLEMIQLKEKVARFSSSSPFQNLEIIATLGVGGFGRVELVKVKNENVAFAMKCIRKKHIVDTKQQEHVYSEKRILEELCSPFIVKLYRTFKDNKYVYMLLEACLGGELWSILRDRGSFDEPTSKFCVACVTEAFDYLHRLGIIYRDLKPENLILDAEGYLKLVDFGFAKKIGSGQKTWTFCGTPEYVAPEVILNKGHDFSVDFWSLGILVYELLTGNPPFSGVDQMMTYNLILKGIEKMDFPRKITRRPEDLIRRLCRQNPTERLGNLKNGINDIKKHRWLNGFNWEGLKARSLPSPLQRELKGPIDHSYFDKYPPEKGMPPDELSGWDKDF"}, "[10]": {"test_system": "TEK (human), Q02763 [R849W]", "sequence (Q02763 whole entry R849W, looked up)": "as the sequence (Q02763 whole entry Y897S, looked up) above, with R849W, S897Y counted along it"}, "[11]": {"target": "STK33 (human) (UniProt Q9BYT3)"}, "[12]": {"target": "CSF1R (human) (UniProt P07333)"}, "[13]": {"test_system": "BLK (mouse)", "conditions": "compound 10.0 µM; accession and sequence are those of the human protein"}, "[14]": {"target": "MTOR (human) (UniProt P42345)"}, "[15]": {"test_system": "EGFR (human), P00533 [L861Q]"}, "[16]": {"target": "ULK2 (human) (UniProt Q8IYT8)", "sequence (Q8IYT8 whole entry, looked up)": "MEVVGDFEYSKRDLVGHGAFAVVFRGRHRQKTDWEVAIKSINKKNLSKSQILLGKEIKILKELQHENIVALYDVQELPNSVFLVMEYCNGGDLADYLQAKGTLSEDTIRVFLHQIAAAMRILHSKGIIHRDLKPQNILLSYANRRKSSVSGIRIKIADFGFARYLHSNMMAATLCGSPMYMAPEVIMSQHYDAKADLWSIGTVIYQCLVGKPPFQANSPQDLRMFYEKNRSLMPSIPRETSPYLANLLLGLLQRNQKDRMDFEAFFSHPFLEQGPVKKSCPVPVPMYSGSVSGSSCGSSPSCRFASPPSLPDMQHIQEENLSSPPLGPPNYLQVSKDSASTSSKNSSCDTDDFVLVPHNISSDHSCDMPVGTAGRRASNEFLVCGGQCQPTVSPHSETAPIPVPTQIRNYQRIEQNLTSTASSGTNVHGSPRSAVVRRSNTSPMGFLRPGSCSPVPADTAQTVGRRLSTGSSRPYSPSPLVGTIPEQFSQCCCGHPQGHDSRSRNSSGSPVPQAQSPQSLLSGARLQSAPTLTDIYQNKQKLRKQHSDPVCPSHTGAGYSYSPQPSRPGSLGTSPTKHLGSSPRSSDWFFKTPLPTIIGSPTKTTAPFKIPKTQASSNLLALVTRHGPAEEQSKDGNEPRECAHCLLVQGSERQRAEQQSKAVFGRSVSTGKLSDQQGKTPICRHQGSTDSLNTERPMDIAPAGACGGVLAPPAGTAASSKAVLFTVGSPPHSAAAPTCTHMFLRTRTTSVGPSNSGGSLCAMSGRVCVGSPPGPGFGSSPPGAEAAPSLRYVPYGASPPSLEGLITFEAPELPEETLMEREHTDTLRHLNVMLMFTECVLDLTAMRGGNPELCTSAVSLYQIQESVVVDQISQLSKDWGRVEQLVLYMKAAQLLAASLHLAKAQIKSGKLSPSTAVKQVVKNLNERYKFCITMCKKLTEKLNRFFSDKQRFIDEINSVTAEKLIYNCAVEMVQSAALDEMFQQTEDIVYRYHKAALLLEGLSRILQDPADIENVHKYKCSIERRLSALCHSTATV"}, "[17]": {"target": "ULK3 (human) (UniProt Q6PHR2)"}, "[18]": {"target": "DCLK2 (human) (UniProt Q8N568)"}, "[19]": {"target": "TAOK1 (human) (UniProt Q7L7X3)"}, "[20]": {"target": "DMPK (human) (UniProt Q09013)"}, "[21]": {"test_system": "ABL1 (human), P00519 [Q252H]"}, "[22]": {"target": "RPS6KA2 KD1 KD2 (human) (UniProt Q15349)"}, "[23]": {"target": "CSNK1G2 (human) (UniProt P78368)"}, "[24]": {"target": "LCK (human) (UniProt P06239)"}, "[25]": {"target": "CDC42BPB (human) (UniProt Q9Y5S2)"}, "[26]": {"target": "RET (human) (UniProt P07949)", "sequence (P07949 whole entry, looked up)": "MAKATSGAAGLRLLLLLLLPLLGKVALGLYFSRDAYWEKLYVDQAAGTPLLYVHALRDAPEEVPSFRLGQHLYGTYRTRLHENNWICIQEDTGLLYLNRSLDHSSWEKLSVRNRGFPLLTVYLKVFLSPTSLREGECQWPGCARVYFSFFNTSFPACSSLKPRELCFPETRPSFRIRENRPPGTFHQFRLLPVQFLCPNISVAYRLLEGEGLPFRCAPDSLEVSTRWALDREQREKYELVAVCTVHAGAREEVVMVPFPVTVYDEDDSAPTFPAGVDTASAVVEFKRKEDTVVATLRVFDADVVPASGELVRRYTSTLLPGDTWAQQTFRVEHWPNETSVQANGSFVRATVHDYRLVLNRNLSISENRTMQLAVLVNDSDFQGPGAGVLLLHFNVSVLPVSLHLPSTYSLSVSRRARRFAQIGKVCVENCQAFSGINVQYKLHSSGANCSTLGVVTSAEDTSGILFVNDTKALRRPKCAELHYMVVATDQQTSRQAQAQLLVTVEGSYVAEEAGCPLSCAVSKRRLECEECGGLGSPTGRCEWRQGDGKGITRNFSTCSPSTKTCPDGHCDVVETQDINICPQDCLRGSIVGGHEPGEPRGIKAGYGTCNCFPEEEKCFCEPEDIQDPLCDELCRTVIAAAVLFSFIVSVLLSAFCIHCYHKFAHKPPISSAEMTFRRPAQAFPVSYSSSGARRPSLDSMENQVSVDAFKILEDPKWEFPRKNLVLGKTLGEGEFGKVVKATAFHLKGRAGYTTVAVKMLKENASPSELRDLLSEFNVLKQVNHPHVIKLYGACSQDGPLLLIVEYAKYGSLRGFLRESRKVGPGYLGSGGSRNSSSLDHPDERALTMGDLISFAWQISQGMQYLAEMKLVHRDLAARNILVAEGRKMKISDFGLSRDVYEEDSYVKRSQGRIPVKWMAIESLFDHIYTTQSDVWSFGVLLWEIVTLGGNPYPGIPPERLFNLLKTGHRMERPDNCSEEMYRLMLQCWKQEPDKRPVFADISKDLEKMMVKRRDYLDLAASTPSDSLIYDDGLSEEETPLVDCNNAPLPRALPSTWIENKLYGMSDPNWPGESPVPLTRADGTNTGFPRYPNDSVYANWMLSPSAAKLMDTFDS"}, "[27]": {"target": "BRSK1 (human) (UniProt Q8TDC3)"}, "[28]": {"target": "PRKD2 (human) (UniProt Q9BZL6)"}, "[29]": {"test_system": "MAPK14 (human), Q16539 [T106M]"}, "[30]": {"target": "MAP3K9 (human) (UniProt P80192)"}, "[31]": {"target": "CSNK1D (human) (UniProt P48730)"}, "[32]": {"test_system": "SRC (human), P12931 [T341M]"}, "[33]": {"target": "TXK (human) (UniProt P42681)"}, "[34]": {"target": "MET (human) (UniProt P08581)"}, "[35]": {"target": "ABL1 (human) (UniProt P00519)"}, "[36]": {"test_system": "ABL1 (human), P00519 [Y253F]"}, "[37]": {"test_system": "RET (human), P07949 [V804M]", "sequence (P07949 whole entry V804M, looked up)": "as the sequence (P07949 whole entry, looked up) above, with V804M counted along it"}}}
{"compound": "O=C(N[C@@H](COc1ccc2[nH]c(=O)[nH]c2c1)c1ccccc1)c1cccn(Cc2ccc(F)c(F)c2)c1=O", "values": [{"measurement": "residual activity", "setting": "[1]; compound 10.0 µM", "result": 110, "unit": "%"}, {"measurement": "residual activity", "setting": "[2]; compound 10.0 µM", "result": 103, "unit": "%"}, {"measurement": "residual activity", "setting": "[3]; compound 10.0 µM", "result": 110, "unit": "%"}, {"measurement": "residual activity", "setting": "[4]; compound 10.0 µM", "result": 111, "unit": "%"}, {"measurement": "residual activity", "setting": "[5]; compound 10.0 µM", "result": 108, "unit": "%"}, {"measurement": "residual activity", "setting": "[6]; compound 10.0 µM", "result": 99, "unit": "%"}, {"measurement": "residual activity", "setting": "[7]; compound 10.0 µM", "result": 96, "unit": "%"}, {"measurement": "residual activity", "setting": "[8]; compound 10.0 µM", "result": 97, "unit": "%"}, {"measurement": "residual activity", "setting": "[9]; compound 10.0 µM", "result": 108, "unit": "%"}, {"measurement": "residual activity", "setting": "[10]; compound 10.0 µM", "result": 104, "unit": "%"}, {"measurement": "residual activity", "setting": "[11]; compound 10.0 µM", "result": 104, "unit": "%"}, {"measurement": "residual activity", "setting": "[12]; compound 10.0 µM", "result": 107, "unit": "%"}, {"measurement": "residual activity", "setting": "[13]", "result": 94, "unit": "%"}, {"measurement": "residual activity", "setting": "[14]; compound 10.0 µM", "result": 102, "unit": "%"}, {"measurement": "residual activity", "setting": "[15]; compound 10.0 µM", "result": 96, "unit": "%"}, {"measurement": "residual activity", "setting": "[16]; compound 10.0 µM", "result": 110, "unit": "%"}, {"measurement": "residual activity", "setting": "[17]; compound 10.0 µM", "result": 99, "unit": "%"}, {"measurement": "residual activity", "setting": "[18]; compound 10.0 µM", "result": 121, "unit": "%"}, {"measurement": "residual activity", "setting": "[19]; compound 10.0 µM", "result": 96, "unit": "%"}, {"measurement": "residual activity", "setting": "[20]; compound 10.0 µM", "result": 105, "unit": "%"}, {"measurement": "residual activity", "setting": "[21]; compound 10.0 µM", "result": 69, "unit": "%"}, {"measurement": "residual activity", "setting": "[22]; compound 10.0 µM", "result": 102, "unit": "%"}, {"measurement": "residual activity", "setting": "[23]; compound 10.0 µM", "result": 97, "unit": "%"}, {"measurement": "residual activity", "setting": "[24]; compound 10.0 µM", "result": 108, "unit": "%"}, {"measurement": "residual activity", "setting": "[25]; compound 10.0 µM", "result": 101, "unit": "%"}, {"measurement": "residual activity", "setting": "[26]; compound 10.0 µM", "result": 100, "unit": "%"}, {"measurement": "residual activity", "setting": "[27]; compound 10.0 µM", "result": 109, "unit": "%"}, {"measurement": "residual activity", "setting": "[28]; compound 10.0 µM", "result": 110, "unit": "%"}, {"measurement": "residual activity", "setting": "[29]; compound 10.0 µM", "result": 113, "unit": "%"}, {"measurement": "residual activity", "setting": "[30]; compound 10.0 µM", "result": 91, "unit": "%"}, {"measurement": "residual activity", "setting": "[31]; compound 10.0 µM", "result": 110, "unit": "%"}, {"measurement": "residual activity", "setting": "[32]; compound 10.0 µM", "result": 102, "unit": "%"}, {"measurement": "residual activity", "setting": "[33]; compound 10.0 µM", "result": 138, "unit": "%"}, {"measurement": "residual activity", "setting": "[34]; compound 10.0 µM", "result": 95, "unit": "%"}, {"measurement": "residual activity", "setting": "[35]; compound 10.0 µM", "result": 115, "unit": "%"}, {"measurement": "residual activity", "setting": "[36]; compound 10.0 µM", "result": 110, "unit": "%"}, {"measurement": "residual activity", "setting": "[37]; compound 10.0 µM", "result": 109, "unit": "%"}]}
{"compound": "C[C@@H](Nc1nc2c(C#CC3CC3)c[nH]c(=O)c2c2cc(-c3cn[nH]c3)ccc12)C(C)(C)C", "values": [{"measurement": "residual activity", "setting": "[1]; compound 1.0 µM", "result": 53, "unit": "%"}, {"measurement": "residual activity", "setting": "[2]; compound 1.0 µM", "result": 73, "unit": "%"}, {"measurement": "residual activity", "setting": "[3]; compound 1.0 µM", "result": 50, "unit": "%"}, {"measurement": "residual activity", "setting": "[4]; compound 1.0 µM", "result": 82, "unit": "%"}, {"measurement": "residual activity", "setting": "[5]; compound 1.0 µM", "result": 105, "unit": "%"}, {"measurement": "residual activity", "setting": "[6]; compound 1.0 µM", "result": 111, "unit": "%"}, {"measurement": "residual activity", "setting": "[7]; compound 1.0 µM", "result": 105, "unit": "%"}, {"measurement": "residual activity", "setting": "[8]; compound 1.0 µM", "result": 86, "unit": "%"}, {"measurement": "residual activity", "setting": "[9]; compound 1.0 µM", "result": 88, "unit": "%"}, {"measurement": "residual activity", "setting": "[10]; compound 1.0 µM", "result": 74, "unit": "%"}, {"measurement": "residual activity", "setting": "[11]; compound 1.0 µM", "result": 41, "unit": "%"}, {"measurement": "residual activity", "setting": "[12]; compound 1.0 µM", "result": 10, "unit": "%"}, {"measurement": "residual activity", "setting": "[14]; compound 1.0 µM", "result": 89, "unit": "%"}, {"measurement": "residual activity", "setting": "[15]; compound 1.0 µM", "result": 68, "unit": "%"}, {"measurement": "residual activity", "setting": "[16]; compound 1.0 µM", "result": 30, "unit": "%"}, {"measurement": "residual activity", "setting": "[17]; compound 1.0 µM", "result": 47, "unit": "%"}, {"measurement": "residual activity", "setting": "[18]; compound 1.0 µM", "result": 112, "unit": "%"}, {"measurement": "residual activity", "setting": "[19]; compound 1.0 µM", "result": 95, "unit": "%"}, {"measurement": "residual activity", "setting": "[20]; compound 1.0 µM", "result": 100, "unit": "%"}, {"measurement": "residual activity", "setting": "[21]; compound 1.0 µM", "result": 54, "unit": "%"}, {"measurement": "residual activity", "setting": "[22]; compound 1.0 µM", "result": 7, "unit": "%"}, {"measurement": "residual activity", "setting": "[23]; compound 1.0 µM", "result": 101, "unit": "%"}, {"measurement": "residual activity", "setting": "[24]; compound 1.0 µM", "result": 58, "unit": "%"}, {"measurement": "residual activity", "setting": "[25]; compound 1.0 µM", "result": 99, "unit": "%"}, {"measurement": "residual activity", "setting": "[26]; compound 1.0 µM", "result": 1, "unit": "%"}, {"measurement": "residual activity", "setting": "[27]; compound 1.0 µM", "result": 29, "unit": "%"}, {"measurement": "residual activity", "setting": "[28]; compound 1.0 µM", "result": 96, "unit": "%"}, {"measurement": "residual activity", "setting": "[29]; compound 1.0 µM", "result": 103, "unit": "%"}, {"measurement": "residual activity", "setting": "[30]; compound 1.0 µM", "result": 1, "unit": "%"}, {"measurement": "residual activity", "setting": "[31]; compound 1.0 µM", "result": 105, "unit": "%"}, {"measurement": "residual activity", "setting": "[32]; compound 1.0 µM", "result": 55, "unit": "%"}, {"measurement": "residual activity", "setting": "[33]; compound 1.0 µM", "result": 84, "unit": "%"}, {"measurement": "residual activity", "setting": "[34]; compound 1.0 µM", "result": 96, "unit": "%"}, {"measurement": "residual activity", "setting": "[35]; compound 1.0 µM", "result": 71, "unit": "%"}, {"measurement": "residual activity", "setting": "[36]; compound 1.0 µM", "result": 60, "unit": "%"}, {"measurement": "residual activity", "setting": "[37]; compound 1.0 µM", "result": 13, "unit": "%"}]}
